Assay results as given in patent US10023570B2 (Array BioPharma, Inc., priority 2015, dated 2018).

Molecular target: human KDR protein in HEK-293 cells (Homo sapiens (Human), UniProt P35968)
Assay: KDR Cell Assay (phospho-KDR in HEK-293 cells expressing inducible KDR)
Format: cell-based
Conditions: pKDR Cell HEK 10% FBS IC50, HEK-293 cells expressing inducible KDR, VEGF stimulated
In short: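 HEK-293 cells with inducible human KDR were treated with compound for 1 h in DMEM (0.25% DMSO final), then lysed. Phospho-KDR was quantified by Meso Scale immunoassay, expressed as percent of control, and IC50 taken where a 4-parameter logistic fit crossed 50 POC.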

Sequence of human KDR protein in HEK-293 cells (P35968 20-1356): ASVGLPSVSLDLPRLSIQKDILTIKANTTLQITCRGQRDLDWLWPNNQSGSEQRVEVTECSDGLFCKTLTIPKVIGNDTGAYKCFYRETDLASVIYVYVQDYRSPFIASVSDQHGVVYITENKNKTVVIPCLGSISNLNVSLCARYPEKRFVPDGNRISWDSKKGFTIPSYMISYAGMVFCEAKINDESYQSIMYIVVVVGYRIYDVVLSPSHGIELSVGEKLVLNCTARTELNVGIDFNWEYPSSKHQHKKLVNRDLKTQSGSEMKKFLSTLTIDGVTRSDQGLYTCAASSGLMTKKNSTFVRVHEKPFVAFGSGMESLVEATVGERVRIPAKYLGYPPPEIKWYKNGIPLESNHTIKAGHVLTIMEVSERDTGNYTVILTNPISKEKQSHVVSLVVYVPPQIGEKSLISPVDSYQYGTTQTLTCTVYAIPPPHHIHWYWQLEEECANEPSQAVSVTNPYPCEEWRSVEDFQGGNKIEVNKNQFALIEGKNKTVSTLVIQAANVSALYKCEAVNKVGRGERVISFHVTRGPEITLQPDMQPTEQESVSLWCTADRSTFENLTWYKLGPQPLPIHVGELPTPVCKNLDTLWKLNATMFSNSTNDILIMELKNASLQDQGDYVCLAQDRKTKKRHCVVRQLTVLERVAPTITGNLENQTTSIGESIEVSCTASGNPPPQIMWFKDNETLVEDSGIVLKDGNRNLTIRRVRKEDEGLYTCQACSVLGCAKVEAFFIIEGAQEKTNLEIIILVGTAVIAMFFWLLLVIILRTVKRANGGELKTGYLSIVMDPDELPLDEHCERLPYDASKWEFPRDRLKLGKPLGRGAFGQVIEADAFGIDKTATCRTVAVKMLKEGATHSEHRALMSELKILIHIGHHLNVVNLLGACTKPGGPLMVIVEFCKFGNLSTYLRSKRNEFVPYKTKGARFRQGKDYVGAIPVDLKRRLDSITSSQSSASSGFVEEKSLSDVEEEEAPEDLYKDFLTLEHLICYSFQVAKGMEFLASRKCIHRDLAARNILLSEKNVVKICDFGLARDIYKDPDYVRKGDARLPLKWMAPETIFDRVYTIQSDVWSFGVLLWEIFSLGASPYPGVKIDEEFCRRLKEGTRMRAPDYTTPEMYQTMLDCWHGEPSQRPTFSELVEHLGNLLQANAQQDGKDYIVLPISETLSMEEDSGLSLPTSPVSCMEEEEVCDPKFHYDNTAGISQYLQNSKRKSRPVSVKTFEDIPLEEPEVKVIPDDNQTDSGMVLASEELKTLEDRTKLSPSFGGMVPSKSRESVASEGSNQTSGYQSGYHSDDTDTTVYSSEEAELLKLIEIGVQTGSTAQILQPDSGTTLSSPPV

For `Cn1cc(-c2cc(-c3ccc(N4CCN(Cc5ncccn5)CC4)nc3)c3c(C#N)cnn3c2)cn1` [Example 472, 6-(1-methyl-1H-pyrazol-4-yl)-4-(6-(4-(pyrimidin-2-ylmethyl)piperazin-1-yl)pyridin-3-yl)pyrazolo[1,5-a]pyridine-3-carbonitrile], the IC50 was 1770 nM.

`Cn1cc(-c2cc(-c3ccc(N4CCN(Cc5ccccn5)CC4)nc3)c3c(C#N)cnn3c2)cn1` [Example 473, 6-(1-methyl-1H-pyrazol-4-yl)-4-(6-(4-(pyridine-2-ylmethyl)piperazin-1-yl)pyridin-3-yl)pyrazolo[1,5-a]pyridine-3-carbonitrile] showed an IC50 of 968 nM.

With `COc1ccc(CN2CCN(c3ccc(-c4cc(-c5cnn(C)c5)cn5ncc(C#N)c45)cn3)CC2)cn1` [Example 474, 4-(6-(4-((6-methoxypyridin-3-yl)methyl)piperazin-1-yl)pyridin-3-yl)-6-(1-methyl-1H-pyrazol-4-yl)pyrazolo[1,5-a]pyridine-3-carbonitrile] the IC50 was 305 nM.

Work on `Cn1cc(-c2cc(-c3ccc(N4C[C@@H]5C[C@H]4CN5Cc4ccccc4)nc3)c3c(C#N)cnn3c2)cn1` [Example 483, 4-(6-((1S,4S)-5-benzyl-2,5-diazabicyclo[2.2.1]heptan-2-yl)pyridin-3-yl)-6-(1-methyl-1H-pyrazol-4-yl)pyrazolo[1,5-a]pyridine-3-carbonitrile] yielded an IC50 of 77.1 nM.

`Cn1cc(-c2cc(-c3ccc(N4CC5CCC(C4)N5Cc4ccccc4)nc3)c3c(C#N)cnn3c2)cn1` [Example 484, 4-(6-(8-benzyl-3,8-diazabicyclo[3.2.1]octan-3-yl)pyridin-3-yl)-6-(1-methyl-1H-pyrazol-4-yl)pyrazolo[1,5-a]pyridine-3-carbonitrile] showed an IC50 of 209 nM.

With `Cn1cc(-c2cc(-c3ccc(N4CC5(CCN(Cc6ccccc6)CC5)C4)nc3)c3c(C#N)cnn3c2)cn1` [Example 485, 4-(6-(7-benzyl-2,7-diazaspiro[3.5]nonan-2-yl)pyridin-3-yl)-6-(1-methyl-1H-pyrazol-4-yl)pyrazolo[1,5-a]pyridine-3-carbonitrile] the IC50 was 4800 nM.

For `Cn1cc(-c2cc(-c3ccc(N4CC5CC(C4)N5Cc4ccccc4)nc3)c3c(C#N)cnn3c2)cn1` [Example 489, 4-(6-(6-benzyl-3,6-diazabicyclo[3.1.1]heptan-3-yl)pyridin-3-yl)-6-(1-methyl-1H-pyrazol-4-yl)pyrazolo[1,5-a]pyridine-3-carbonitrile], the IC50 was 19.5 nM.

Work on `Cn1cc(-c2cc(-c3ccc(N4C5CC4CN(Cc4ccccc4)C5)nc3)c3c(C#N)cnn3c2)cn1` [Example 490, 4-(6-(3-benzyl-3,6-diazabicyclo[3.1.1]heptan-6-yl)pyridin-3-yl)-6-(1-methyl-1H-pyrazol-4-yl)pyrazolo[1,5-a]pyridine-3-carbonitrile] yielded an IC50 of 619 nM.

In the case of `Cn1cc(-c2cc(-c3ccc(N4C5CCC4CN(Cc4ccccc4)C5)nc3)c3c(C#N)cnn3c2)cn1` [Example 491, 4-(6-(3-benzyl-3,8-diazabicyclo[3.2.1]octan-8-yl)pyridin-3-yl)-6-(1-methyl-1H-pyrazol-4-yl)pyrazolo[1,5-a]pyridine-3-carbonitrile], the IC50 is reported as 120 nM.

For `Cn1cc(-c2cc(-c3ccc(N4CCC5(CC4)CN(C(=O)C4CC4)C5)nc3)c3c(C#N)cnn3c2)cn1` [Example 492, 4-(6-(2-(cyclopropanecarbonyl)-2,7-diazaspiro[3.5]nonan-7-yl)pyridin-3-yl)-6-(1-methyl-1H-pyrazol-4-yl)pyrazolo[1,5-a]pyridine-3-carbonitrile], the IC50 was 563 nM.

`Cn1cc(-c2cc(-c3ccc(N4CCC5(CC4)CN(C(=O)C4CCC4)C5)nc3)c3c(C#N)cnn3c2)cn1` [Example 493, 4-(6-(2-(cyclobutanecarbonyl)-2,7-diazaspiro[3.5]nonan-7-yl)pyridin-3-yl)-6-(1-methyl-1H-pyrazol-4-yl)pyrazolo[1,5-a]pyridine-3-carbonitrile] showed an IC50 of 928 nM.

`CN(C)CC(=O)N1CC2(CCN(c3ccc(-c4cc(-c5cnn(C)c5)cn5ncc(C#N)c45)cn3)CC2)C1` [Example 494, 4-(6-(2-(2-(dimethylamino)acetyl)-2,7-diazaspiro[3.5]nonan-7-yl)pyridin-3-yl)-6-(1-methyl-1H-pyrazol-4-yl)pyrazolo[1,5-a]pyridine-3-carbonitrile] showed an IC50 of 1830 nM.

`Cn1cc(-c2cc(-c3ccc(N4CCC5(CC4)CN(C(=O)C4CCCCC4)C5)nc3)c3c(C#N)cnn3c2)cn1` [Example 495, 4-(6-(2-(cyclohexanecarbonyl)-2,7-diazaspiro[3.5]nonan-7-yl)pyridin-3-yl)-6-(1-methyl-1H-pyrazol-4-yl)pyrazolo[1,5-a]pyridine-3-carbonitrile] was tested, and the IC50 was 771 nM.

`CCC(CC)C(=O)N1CC2(CCN(c3ccc(-c4cc(-c5cnn(C)c5)cn5ncc(C#N)c45)cn3)CC2)C1` [Example 496, 4-(6-(2-(2-ethylbutanoyl)-2,7-diazaspiro[3.5]nonan-7-yl)pyridin-3-yl)-6-(1-methyl-1H-pyrazol-4-yl)pyrazolo[1,5-a]pyridine-3-carbonitrile] showed an IC50 of 2120 nM.

`Cn1cc(-c2cc(-c3ccc(N4CCC5(CC4)CN(C(=O)OC4CCCC4)C5)nc3)c3c(C#N)cnn3c2)cn1` [Example 499, Cyclopentyl 7-(5-(3-cyano-6-(1-methyl-1H-pyrazol-4-yl)pyrazolo[1,5-a]pyridin-4-yl)pyridine-2-yl)-2,7-diazaspiro[3.5]nonane-2-carboxylate] showed an IC50 of 462 nM.

`Cn1cc(-c2cc(-c3ccc(N4CCC5(CC4)CN(C(=O)N4CCCC4)C5)nc3)c3c(C#N)cnn3c2)cn1` [Example 500, 6-(1-methyl-1H-pyrazol-4-yl)-4-(6-(2-(pyrrolidine-1-carbonyl)-2,7-diazaspiro[3.5]nonan-7-yl)pyridin-3-yl)pyrazolo[1,5-a]pyridine-3-carbonitrile] gave an IC50 of 458 nM.

`CN(C)C(=O)N1CC2(CCN(c3ccc(-c4cc(-c5cnn(C)c5)cn5ncc(C#N)c45)cn3)CC2)C1` [Example 501, 7-(5-(3-cyano-6-(1-methyl-1H-pyrazol-4-yl)pyrazolo[1,5-a]pyridin-4-yl)pyridin-2-yl)-N,N-dimethyl-2,7-diazaspiro[3.5]nonane-2-carboxamide] was tested, and the IC50 was 554 nM.

`CCN(CC)C(=O)N1CC2(CCN(c3ccc(-c4cc(-c5cnn(C)c5)cn5ncc(C#N)c45)cn3)CC2)C1` [Example 502, 7-(5-(3-cyano-6-(1-methyl-1H-pyrazol-4-yl)pyrazolo[1,5-a]pyridin-4-yl)pyridin-2-yl)-N,N-diethyl-2,7-diazaspiro[3.5]nonane-2-carboxamide] gave an IC50 of 437 nM.

Work on `Cn1cc(-c2cc(-c3ccc(N4CCC5(CCCN(C(=O)OC(C)(C)C)C5)CC4)nc3)c3c(C#N)cnn3c2)cn1` [Example 504, tert-Butyl 9-(5-(3-cyano-6-(1-methyl-1H-pyrazol-4-yl)pyrazolo[1,5-a]pyridin-4-yl)pyridine-2-yl)-2,9-diazaspiro[5.5]undecane-2-carboxylate] yielded an IC50 of 2070 nM.

`Cn1cc(-c2cc(-c3ccc(N4CCN(C5CCOC5)CC4)nc3)c3c(C#N)cnn3c2)cn1` (centres unmarked) [Example 505, 6-(1-methyl-1H-pyrazol-4-yl)-4-(6-(4-(tetrahydrofuran-3-yl)piperazin-1-yl)pyridin-3-yl)pyrazolo[1,5-a]pyridine-3-carbonitrile bis(2,2,2-trifluoroacetate)] showed an IC50 of 1300 nM.

`Cn1cc(-c2cc(-c3ccc(N4CCC(Nc5ccccc5)CC4)nc3)c3c(C#N)cnn3c2)cn1` [Example 507, 6-(1-methyl-1H-pyrazol-4-yl)-4-(6-(4-(phenylamino)piperidin-1-yl)pyridin-3-yl)pyrazolo[1,5-a]pyridine-3-carbonitrile] showed an IC50 of 24.9 nM.

`Cn1cc(-c2cc(-c3ccc(N4CCC(Oc5ccccc5)CC4)nc3)c3c(C#N)cnn3c2)cn1` [Example 508] was tested, and the IC50 was 2.9 nM.

Work on `Cn1cc(-c2cc(-c3ccc(N4CCC(Oc5ccc(Cl)cc5)CC4)nc3)c3c(C#N)cnn3c2)cn1` [Example 509, 4-(6-(4-(4-chlorophenoxy)piperidin-1-yl)pyridin-3-yl)-6-(1-methyl-1H-pyrazol-4-yl)pyrazolo[1,5-a]pyridine-3-carbonitrile] yielded an IC50 of 9.2 nM.

Work on `Cn1cc(-c2cc(-c3ccc(N4CCC5(CCN(C(=O)OC(C)(C)C)CC5)CC4)nc3)c3c(C#N)cnn3c2)cn1` [Example 511, tert-butyl 9-(5-(3-cyano-6-(1-methyl-1H-pyrazol-4-yl)pyrazolo[1,5-a]pyridin-4-yl)pyridin-2-yl)-3,9-diazaspiro[5.5]undecane-3-carboxylate] yielded an IC50 of 1050 nM.

With `Cn1cc(-c2cc(-c3ccc(N4CCC5(CCCN5C(=O)OC(C)(C)C)CC4)nc3)c3c(C#N)cnn3c2)cn1` [Example 513, tert-butyl 8-(5-(3-cyano-6-(1-methyl-1H-pyrazol-4-yl)pyrazolo[1,5-a]pyridin-4-yl)pyridin-2-yl)-1,8-diazaspiro[4.5]decane-1-carboxylate] the IC50 was 2940 nM.

Molecule `Cn1cc(-c2cc(-c3ccc(N4CCC5(CC4)CCN5C(=O)OC(C)(C)C)nc3)c3c(C#N)cnn3c2)cn1` [Example 515, tert-butyl 7-(5-(3-cyano-6-(1-methyl-1H-pyrazol-4-yl)pyrazolo[1,5-a]pyridin-4-yl)pyridin-2-yl)-1,7-diazaspiro[3.5]nonane-1-carboxylate] has an IC50 of 284 nM.

Molecule `Cn1cc(-c2cc(-c3ccc(N4CCC5(CC4)CC(NC(=O)OC(C)(C)C)C5)nc3)c3c(C#N)cnn3c2)cn1` [Example 516, tert-butyl (7-(5-(3-cyano-6-(1-methyl-1H-pyrazol-4-yl)pyrazolo[1,5-a]pyridin-4-yl)pyridin-2-yl)-7-azaspiro[3.5]nonan-2-yl)carbamate] has an IC50 of 173 nM.

`Cn1cc(-c2cc(-c3ccc(N4CCC5(CCN(C(=O)OC(C)(C)C)CC5)C4)nc3)c3c(C#N)cnn3c2)cn1` [Example 517, tert-butyl 2-(5-(3-cyano-6-(1-methyl-1H-pyrazol-4-yl)pyrazolo[1,5-a]pyridin-4-yl)pyridin-2-yl)-2,8-diazaspiro[4.5]decane-8-carboxylate] showed an IC50 of 1790 nM.

Molecule `Cn1cc(-c2cc(-c3ccc(N4CCC5(CCCN(C(=O)OC(C)(C)C)C5)C4)nc3)c3c(C#N)cnn3c2)cn1` (centres unmarked) [Example 518, tert-butyl 2-(5-(3-cyano-6-(1-methyl-1H-pyrazol-4-yl)pyrazolo[1,5-a]pyridin-4-yl)pyridin-2-yl)-2,7-diazaspiro[4.5]decane-7-carboxylate] has an IC50 of 4630 nM.
